One test addresses T1, p110α Type Ia human PI3K (Homo sapiens, UniProt P42336).
T1 construct: full length DNA of each of the p110α, p110β and p110δ Type Ia human PI3K p110 isoforms; 6-His; made in house; host or cells: baculovirus expression system (Sf9 is named only for PI3Kγ)
Briefly: Test (a) In Vitro PI3K Enzyme Assay (AlphaScreen). Conditions: read-out: IC50 versus p110α PI3K. The format is biochemical. The source says:
The assay used AlphaScreen technology (Gray et al., Analytical Biochemistry, 2003, 313: 234-245) to determine the ability of test compounds to inhibit phosphorylation by recombinant Type I PI3K enzymes of the lipid PI(4,5)P2.
DNA fragments encoding human PI3K catalytic and regulatory subunits were isolated from cDNA libraries using standard molecular biology and PCR cloning techniques. The selected DNA fragments were used to generate baculovirus expression vectors. In particular, full length DNA of each of the p110α, p110β and p110δ Type Ia human PI3K p110 isoforms (EMBL Accession Nos. HSU79143, S67334, Y10055 for p110α, p110β and p110δ respectively) were sub-cloned into a pDEST10 vector (Invitrogen Limited, Fountain Drive, Paisley, UK). The vector is a Gateway-adapted version of Fastbac1 containing a 6-His epitope tag. A truncated form of Type Ib human PI3K p110γ isoform corresponding to amino acid residues 144-1102 (EMBL Accession No. X8336A) and the full length human p85α regulatory subunit (EMBL Accession No. HSP13KIN) were also sub-cloned into pFastBac1 vector containing a 6-His epitope tag. The Type Ia p110 constructs were co-expressed with the p85α regulatory subunit. Following expression in the baculovirus system using standard baculovirus expression techniques, expressed proteins were purified using the His epitope tag using standard purification techniques.
DNA corresponding to amino acids 263 to 380 of human general receptor for phosphoinositides (Grp1) PH domain was isolated from a cDNA library using standard molecular biology and PCR cloning techniques. The resultant DNA fragment was sub-cloned into a pGEX 4T1 E. coli expression vector containing a GST epitope tag (Amersham Pharmacia Biotech, Rainham, Essex, UK) as described by Gray et al., Analytical Biochemistry, 2003, 313: 234-245). The GST-tagged Grp1 PH domain was expressed and purified using standard techniques.
Test compounds were prepared as […] stock solutions in DMSO and diluted into water as required to give a range of final assay concentrations. Aliquots (2 μl) of each compound dilution were placed into a well of a Greiner 384-well low volume (LV) white polystyrene plate (Greiner Bio-one, Brunel Way, Stonehouse, Gloucestershire, UK Catalogue No. 784075). […]
Biotinylated-DiC8-PI(3,4,5)P3 (50 nM; Cell Signals Inc., Catalogue No. 107), recombinant purified GST-Grp1 PH protein (2.5 nM) and AlphaScreen Anti-GST donor and acceptor beads (100 ng; Packard Bioscience Limited, Station Road, Pangbourne, Berkshire, UK, Catalogue No. 6760603M) were added and the assay plates were left for about 5 to 20 hours at room temperature in the dark. The resultant signals arising from laser light excitation at 680 nm were read using a Packard AlphaQuest instrument. […]

In test [1] the test system is phosphorylation of Serine 473 in Akt (MDA-MB-468 cells). Put plainly: Test (c) In Vitro phospho-Ser473 Akt Assay. The format is cell-based. Conditions: Homo sapiens, read-out: IC50 versus Serine 473 in Akt. The protocol: This assay determines the ability of test compounds to inhibit phosphorylation of Serine 473 in Akt as assessed using Acumen Explorer technology (Acumen Bioscience Limited), a plate reader that can be used to rapidly quantitate features of images generated by laser-scanning.
A MDA-MB-468 human breast adenocarcinoma cell line (LGC Promochem, Teddington, Middlesex, UK, Catalogue No. HTB-132) was routinely maintained at 37° C. with 5% CO2 up to a confluency of 70-90% in DMEM containing 10% heat-inactivated FCS and 1% L-glutamine.
For the assay, the cells were detached from the culture flask using ‘Accutase’ (Innovative Cell Technologies Inc., San Diego, Calif., USA; Catalogue No. AT104) using standard tissue culture methods and resuspended in media to give 1.7×10^5 cells per ml. Aliquots (90 μl) were seeded into each of the inner 60 wells of a black Packard 96 well plate (PerkinElmer, Boston, Mass., USA; Catalogue No. 6005182) to give a density of ˜15000 cells per well. Aliquots (90 μl) of culture media were placed in the outer wells to prevent edge effects. The cells were incubated overnight at 37° C. with 5% CO2 to allow them to adhere.
On day 2, the cells were treated with test compounds and incubated for 2 hours at 37° C. with 5% CO2. Test compounds were prepared as 10 mM stock solutions in DMSO and serially diluted as required with growth media to give a range of concentrations that were 10-fold the required final test concentrations. Aliquots (10 μl) of each compound dilution were placed in a well (in triplicate) to give the final required concentrations. As a minimum response control, each plate contained wells having a final concentration of 100 μM LY294002 (Calbiochem, Beeston, UK, Catalogue No. 440202). As a maximum response control, wells contained 1% DMSO instead of test compound. Following incubation, the contents of the plates were […] by treatment with a 1.6% aqueous formaldehyde solution (Sigma, Poole, Dorset, UK, Catalogue No. F1635) at room temperature for 1 hour.
All subsequent aspiration and wash steps were carried out using a Tecan 96 well late washer (aspiration speed 10 mm/sec). The fixing solution was removed and the contents of the plates were washed with phosphate-buffered saline (PBS; 50 μl; Gibco, Catalogue No. 10010015). The contents of the plates were treated for 10 minutes at room temperature with an aliquot (50 μl) of a cell permeabilisation buffer consisting of a mixture of PBS and 0.5% Tween-20. […] An aliquot of PBS (50 μl) was added to each well and the plates were sealed with black plate sealers and the fluorescence signal was detected and analysed.
Fluorescence dose response data obtained with each compound were analysed and the degree of inhibition of Serine 473 in Akt was expressed as an IC50 value.

The values that follow come from patent US7868188B2, “5-heteroaryl thiazoles and their use as PI3K inhibitors” (AstraZeneca AB, priority 2004, dated 2011).

Structures can show the parent of a compound that is named as a salt.

T1 sequence (P42336 whole entry, canonical isoform): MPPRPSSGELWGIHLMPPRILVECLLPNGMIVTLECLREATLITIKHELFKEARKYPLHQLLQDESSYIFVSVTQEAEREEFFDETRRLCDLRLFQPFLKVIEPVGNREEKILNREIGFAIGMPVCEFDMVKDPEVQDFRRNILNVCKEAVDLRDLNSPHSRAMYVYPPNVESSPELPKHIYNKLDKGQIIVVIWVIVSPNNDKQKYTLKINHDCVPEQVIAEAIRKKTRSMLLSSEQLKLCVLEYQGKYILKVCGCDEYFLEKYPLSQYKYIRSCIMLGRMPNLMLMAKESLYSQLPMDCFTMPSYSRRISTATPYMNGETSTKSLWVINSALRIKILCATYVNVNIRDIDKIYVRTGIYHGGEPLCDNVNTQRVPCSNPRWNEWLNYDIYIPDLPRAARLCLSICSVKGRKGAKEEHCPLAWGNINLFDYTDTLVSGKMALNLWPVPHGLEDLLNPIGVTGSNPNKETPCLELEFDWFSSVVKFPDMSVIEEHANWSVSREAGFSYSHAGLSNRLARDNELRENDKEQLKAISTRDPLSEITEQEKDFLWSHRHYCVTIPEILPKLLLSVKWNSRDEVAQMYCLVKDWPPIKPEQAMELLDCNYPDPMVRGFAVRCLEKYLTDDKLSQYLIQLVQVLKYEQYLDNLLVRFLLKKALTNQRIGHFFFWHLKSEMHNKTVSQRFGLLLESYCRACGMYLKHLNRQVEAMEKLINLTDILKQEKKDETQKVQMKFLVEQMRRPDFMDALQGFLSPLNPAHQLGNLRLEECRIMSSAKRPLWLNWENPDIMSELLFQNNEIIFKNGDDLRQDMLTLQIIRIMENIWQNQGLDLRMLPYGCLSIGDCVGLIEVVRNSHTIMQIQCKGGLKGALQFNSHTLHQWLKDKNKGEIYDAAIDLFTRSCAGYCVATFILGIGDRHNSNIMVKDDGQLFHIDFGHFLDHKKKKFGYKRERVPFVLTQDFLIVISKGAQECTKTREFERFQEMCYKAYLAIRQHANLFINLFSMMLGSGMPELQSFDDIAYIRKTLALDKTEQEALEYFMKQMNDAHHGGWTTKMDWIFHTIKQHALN
T1 sequence (P27986 whole entry partner, canonical isoform): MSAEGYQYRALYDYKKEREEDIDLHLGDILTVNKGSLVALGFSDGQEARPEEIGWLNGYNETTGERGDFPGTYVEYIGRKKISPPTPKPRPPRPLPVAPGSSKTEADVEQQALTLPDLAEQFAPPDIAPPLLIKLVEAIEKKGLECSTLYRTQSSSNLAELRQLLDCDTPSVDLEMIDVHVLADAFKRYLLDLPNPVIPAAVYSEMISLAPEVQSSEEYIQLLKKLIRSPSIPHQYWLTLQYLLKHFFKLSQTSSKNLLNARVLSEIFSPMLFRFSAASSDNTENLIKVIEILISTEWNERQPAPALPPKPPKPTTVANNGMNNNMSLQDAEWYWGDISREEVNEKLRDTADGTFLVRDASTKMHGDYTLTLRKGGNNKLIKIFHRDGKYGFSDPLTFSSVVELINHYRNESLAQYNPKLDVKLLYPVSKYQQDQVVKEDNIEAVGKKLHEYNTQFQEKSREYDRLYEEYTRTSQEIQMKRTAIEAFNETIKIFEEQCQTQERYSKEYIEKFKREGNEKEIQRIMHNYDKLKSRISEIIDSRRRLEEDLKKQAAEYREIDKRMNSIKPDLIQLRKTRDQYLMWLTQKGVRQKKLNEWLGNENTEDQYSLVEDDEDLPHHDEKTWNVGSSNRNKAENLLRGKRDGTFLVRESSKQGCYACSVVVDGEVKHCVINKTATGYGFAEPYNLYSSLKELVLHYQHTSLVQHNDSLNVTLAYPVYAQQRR

Take `CC(=O)Nc1nc(C)c(-c2cnc(Cl)c(NS(=O)(=O)c3ccccc3)c2)s1` [Example 13, N-{5-[6-Chloro-5-(phenylsulfonylamino)pyridin-3-yl]-4-methyl-1,3-thiazol-2-yl}acetamide trifluoroacetate]: the IC50 (as a rule, the point on the concentration scale where inhibition reaches its midpoint) on p110α Type Ia human PI3K was approximately 10 nM; in test [1], approximately 20 nM.
